For the test, the target named is T1, androgen receptor (AR) (Homo sapiens, UniProt P10275, T878A).
T1 construct: endogenous in cells; host or cells: LNCaP
T1 sequence (P10275 1-920 T878A): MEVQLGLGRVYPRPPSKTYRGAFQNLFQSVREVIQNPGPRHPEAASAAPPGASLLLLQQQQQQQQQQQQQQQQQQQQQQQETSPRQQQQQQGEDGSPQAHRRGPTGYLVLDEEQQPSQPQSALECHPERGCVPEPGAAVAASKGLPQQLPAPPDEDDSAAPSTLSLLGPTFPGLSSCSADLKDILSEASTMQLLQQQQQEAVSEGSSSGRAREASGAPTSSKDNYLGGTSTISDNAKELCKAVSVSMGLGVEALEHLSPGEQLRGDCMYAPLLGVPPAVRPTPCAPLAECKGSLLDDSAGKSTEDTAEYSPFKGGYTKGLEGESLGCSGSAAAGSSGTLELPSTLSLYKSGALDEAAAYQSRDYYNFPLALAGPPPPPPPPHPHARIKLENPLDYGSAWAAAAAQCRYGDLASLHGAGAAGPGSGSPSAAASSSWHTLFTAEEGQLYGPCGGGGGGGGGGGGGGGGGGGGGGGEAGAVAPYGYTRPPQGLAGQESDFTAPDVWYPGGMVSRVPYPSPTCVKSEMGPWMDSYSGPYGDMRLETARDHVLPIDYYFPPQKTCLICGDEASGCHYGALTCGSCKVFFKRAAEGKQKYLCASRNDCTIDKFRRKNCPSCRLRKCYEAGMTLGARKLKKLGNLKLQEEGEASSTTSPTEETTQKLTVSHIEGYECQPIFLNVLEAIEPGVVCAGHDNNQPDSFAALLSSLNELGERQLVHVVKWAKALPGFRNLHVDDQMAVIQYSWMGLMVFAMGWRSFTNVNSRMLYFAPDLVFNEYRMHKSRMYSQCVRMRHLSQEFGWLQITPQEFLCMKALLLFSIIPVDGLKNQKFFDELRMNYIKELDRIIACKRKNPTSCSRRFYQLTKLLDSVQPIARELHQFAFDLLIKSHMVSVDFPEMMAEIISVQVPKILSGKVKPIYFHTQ
As to the kind of experiment: PSA (6.1 kb)-luciferase reporter assay in LNCaP cells induced with R1881. Format: cell-based. The note with it: LNCaP cells transfected with PSA (6.1 kb)-luciferase, 1 h pre-treatment, R1881 (1 nM) 24 h. As for the experimental part:
LNCaP cells were transiently transfected with PSA (6.1 kb)-luciferase for 24 h prior to pre-treatment with compounds of the invention (e.g., Compound 1c) ranging in concentration from 62.5 ng/ml to 1.5 ug/ml for 1 hour before the addition of vehicle, or synthetic androgen, R1881 (1 nM) to induce luciferase production. After 24 h of incubation with R1881, the cells were harvested, and relative luciferase activities were determined. To determine the IC50, treatments were normalized to the predicted maximal activity induction (in the absence of test compounds, vehicle only).

Read-outs that look alike come from different tables or passages of the source.

As to `CC(C)(c1ccc(OC[C@H](O)CO)cc1)c1ccc(OC[C@@H](Cl)CO)cc1` [Compound 1c, (R)-3-(4-(2-(4-((S)-2-chloro-3-hydroxypropoxy)phenyl)propan-2-yl)phenoxy)propane-1,2-diol], the IC50 came out at 14 µM (Trial 1, read-out: IC50, Trial 1); 19.4 µM (Trial 2, read-out: IC50, Trial 2); 17 µM (Trial 3, read-out: IC50, Trial 3); 15.8 µM (Trial 4, read-out: IC50, Trial 4); 16.7 ± 2.68 µM (average of trials, read-out: Average IC50).
